From patent US20130230459A1, “RADIOLABELLED mGluR2 PET LIGANDS” (Janssen Pharmaceuticals, Inc., priority 2010, published 2013)
“And” between values parts separate entries of the source, which are not always exact repeats. Identical values can stand only once.

Tests used:
Type in all cases: in vivo, Wistar rats
[1] = Plasma radiometabolite analysis (30 min p.i.); conditions: n = 2
Protocol: The metabolic stability of [^11C]B-4, [^11C]B-2, [^11C]B-7, and [^11C]B-10 was studied in healthy male Wistar rats by determination of the relative amounts of parent tracer and radiometabolites in plasma at 30 min p.i. of the tracer. After intravenous (i.v.) administration of about 74 MBq of the radioligand via tail vein under anesthesia (2.5% Isoflurane in O2 at 1 L/min flow rate), rats were sacrificed by decapitation at 30 min p.i. (n=2). Blood was collected in heparin containing tubes (4.5 mL LH PST tubes; BD vacutainer, BD, Franklin Lakes, N.J., USA) and stored on ice to stop the metabolism. Next, the blood was centrifuged for 5 min at 3000 rpm to separate the plasma. About 0.5 mL of plasma was spiked with about 10 μg of the authentic non-radioactive compound (1 mg/mL solution) and injected on to HPLC, which was connected to a Chromolith® performance column (C18, 3 mm×100 mm, Merck KGaA, Darmstadt, Germany). The mobile phase consisted of 0.05 M NaOAc buffer (pH 5.5) (solution A) and CH3CN (solvent B). The following method was used for the analysis: isocratic elution with 100% A for 4 min at a flow rate of 0.5 mL/min, linear gradient to 90% B by 9 min at a flow rate of 1 mL/min, and isocratic elution with mixture of 10% A and 90% B until 12 min. After passing through the UV detector (254 nm), the HPLC eluate was collected as 1 mL fractions (fraction collection each minute) using an automatic fraction collector and the radioactivity of these fractions was measured using an automated gamma counter.

[2] = Perfused brain radiometabolite analysis (30 min p.i.)
Protocol: The relative amounts of parent tracer and radiometabolites in perfused cerebellum and cerebrum at 30 min p.i. of the tracer was determined in healthy male Wistar rats for [^11C]B-4, [^11C]B-2, [^11C]B-7, and [^11C]B-10. After i.v. administration of about 74 MBq of the radioligand via tail vein under anesthesia (2.5% Isoflurane in O2 at 1 L/min flow rate), rats were sacrificed by administering an overdose of Nembutal (CEVA Santé Animale, 200 mg/kg intraperitoneal). When breathing had stopped, the rats were perfused with saline (Mini Plasco®, Braun, Melsungen, Germany) until the liver turned pale. Brain was isolated, cerebrum and cerebellum were separated and homogenized in 3 mL and 2 mL of CH3CN, respectively, for about 2 min. A volume of 1 mL of this homogenate was diluted with an equal volume of water and a part of this homogenate was filtered through a 0.22 μm filter (Millipore, Bedford, USA). About 0.5 mL of the filtrate was diluted with 0.1 mL of water and spiked with 10 μg of authentic non-radioactive compound (1 mg/mL solution) for identification of the intact tracer. The cerebrum/cerebellum extract was then injected onto an HPLC system consisting of an analytical XBridge® column (C18, 5 μM, 3 mm×100 mm, Waters) eluted with a mixture of 0.05 M NaOAc buffer (pH 5.5) and CH3CN (60:40 v/v) at a flow rate of 0.8 mL/min. The HPLC eluate was collected as 1 mL fractions (fraction collection each minute) after passing through the UV detector (254 nm), and the radioactivity in the fractions was measured using an automated gamma counter.

mGluR2 = target: T1, mGluR2 (Rattus norvegicus, UniProt P31421); assay: MicroPET imaging: baseline, blocking and chase experiments; conditions: for % reduction of SUV (total brain) due to chase: chase compound B 4 mg/kg i.v.; for character of tracer binding to mGluR2 in vivo: concluded from blocking/chase microPET experiments; for SUV (total brain) before chase: maximum SUV; for SUV (total brain) before chase / SUV (total brain) after chase: chase compound B 4 mg/kg i.v. 30 min after tracer; for SUV (total brain) after chase: minimum SUV; for average SUV (total brain) after chase: 4650-5250 sec p.i.
T1 construct: from tissue; host or cells: brain of living male Wistar rats (in vivo microPET)
T1 sequence (P31421 19-872): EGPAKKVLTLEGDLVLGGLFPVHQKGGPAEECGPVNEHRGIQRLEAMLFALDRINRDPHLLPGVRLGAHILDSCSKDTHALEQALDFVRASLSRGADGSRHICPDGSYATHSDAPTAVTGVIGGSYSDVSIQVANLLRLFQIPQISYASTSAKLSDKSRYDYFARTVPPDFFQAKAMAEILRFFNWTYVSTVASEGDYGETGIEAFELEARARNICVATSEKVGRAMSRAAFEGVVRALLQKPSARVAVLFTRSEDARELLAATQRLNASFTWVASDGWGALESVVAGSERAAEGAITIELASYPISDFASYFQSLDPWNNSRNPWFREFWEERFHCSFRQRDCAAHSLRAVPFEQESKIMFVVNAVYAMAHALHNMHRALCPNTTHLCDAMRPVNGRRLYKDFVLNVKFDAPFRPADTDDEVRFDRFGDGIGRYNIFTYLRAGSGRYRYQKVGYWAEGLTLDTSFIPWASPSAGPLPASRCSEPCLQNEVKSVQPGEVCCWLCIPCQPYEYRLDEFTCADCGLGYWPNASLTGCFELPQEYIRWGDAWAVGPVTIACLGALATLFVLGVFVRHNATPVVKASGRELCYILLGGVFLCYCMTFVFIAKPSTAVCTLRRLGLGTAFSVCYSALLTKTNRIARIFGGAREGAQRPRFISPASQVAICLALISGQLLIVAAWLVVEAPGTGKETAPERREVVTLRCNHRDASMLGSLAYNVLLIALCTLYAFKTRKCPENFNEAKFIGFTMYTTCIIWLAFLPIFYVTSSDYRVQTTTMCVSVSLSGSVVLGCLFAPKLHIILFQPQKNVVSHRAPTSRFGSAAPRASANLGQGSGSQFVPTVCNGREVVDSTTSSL
Protocol: Imaging experiments were performed on a Focus™ 220 microPET scanner (Concorde Microsystems, Knoxyille, Tenn., USA) using healthy male Wistar rats. During all scan sessions, animals were kept under gas anesthesia (2.5% isoflurane in O2 at 1 L/min flow rate).
Dynamic scans of 90 min were acquired. After reconstruction of the images (filtered back projection), they were spatially normalized to an in-house created [^11C]raclopride template of the rat brain in Paxinos coordinates. Automated and symmetric volumes of interest (VOIs) were generated for different brain regions (striatum, cortex, cerebellum, hippocampus, hypothalamus, thalamus, substantia nigra, nucleus accumbens and lateral globus pallidus) from which time-activity curves (TAC) were constructed for each individual scan, using PMOD software (v 3.1, PMOD Technologies Ltd.). The radioactivity concentration in the different brain regions was expressed as SUV as a function of time p.i. of the radiotracer by normalization for body weight of the animal and injected dose.
Rats were injected with 30-60 MBq of high specific activity formulation of [^11C]B-4, [^11C]B-2, [^11C]B-7, or [^11C]B-10 via the tail vein under isoflurane anesthesia (2.5% in O2 at 1 L/min flow rate).
For pretreatment and displacement experiments, compound A, compound B or ritanserin were dissolved and administered in a vehicle containing 20% (2-hydroxypropyl)-β-cyclodextrine and two equivalents hydrochloric acid. The ritanserin solution was protected from light.
A self-blocking study was done by subcutaneous (s.c.) administration of the authentic reference material (for [^11C]B-4) at ˜30 min prior to the radiotracer injection. Displacement studies were performed by i.v. injection of compound B at dose 4, 1, 0.3 and 0.1 mg/kg, compound A at dose 1 mg/kg or ritanserin at dose 0.3 mg/kg. All chase compounds were injected ˜30 min after radiotracer injection. A wash-out period of at least four days was maintained between the different pretreatment and displacement studies.
[^11C]B-4 was evaluated in vivo in three rats which were scanned dynamically for 90 min using μPET. The first rat was used for a baseline scan. The second rat was pretreated with authentic reference material B-4 via s.c. administration (dose 10 mg/kg) at 30 min prior to tracer injection. The third rat was used in a chase experiment and was injected i.v. with authentic reference material B-4 (dose 3 mg/kg) 30 min after tracer injection.
Two rats were injected with high specific activity tracer ([^11C]B-4, [^11C]B-2, [^11C]B-7, or [^11C]B-10) and scanned dynamically for 90 min. The first rat was scanned baseline, the second rat was injected i.v. with compound B (dose 4 mg/kg) 30 min after tracer injection. Table 16 gives an overview of the maximum and minimum SUV values in the chase experiment for the four studied tracers.
A chase experiment was performed for [^11C]B-2 with different doses of compound B (4, 1, 0.3, 0.1 mg/kg). The chase compound was injected i.v. 30 min after tracer injection. Table 17 gives an overview of the average SUV values before and after injection of the chase for the total brain.

| Intact tracer in rat plasma [1] | Polar metabolites in rat plasma [1] [%] | intact tracer in perfused cerebellum [2] [%] | intact tracer in perfused cerebrum [2] [%] | polar metabolite in perfused cerebellum [2] [%] | polar metabolite in perfused cerebrum [2] [%] | recovered radioactivity present as intact tracer, on average, in both cerebrum and cerebellum [2] | % reduction of SUV (total brain) due to chase (mGluR2) [%] | SUV (total brain) before chase (mGluR2) | SUV (total brain) after chase (mGluR2) | SMILES | character of tracer binding to mGluR2 in vivo (mGluR2) | other results |
| --- | --- | --- | --- | --- | --- | --- | --- | --- | --- | --- | --- | --- |
| 30.8 ± 7.0% | 69.2 ± 7.0 | 95.5 | 92.9 | 4.5 | 7.1 | about 90% | 58 | 1.2 | 0.5 | [11CH3]Oc1cc(F)cc(F)c1C1CCN(c2ccn3c(CC4CC4)nnc3c2Cl)CC1 [[^11C]B-7, 8-chloro-3-(cyclopropylmethyl)-7-[4-[2,4-difluoro-6-[^11C]methoxyphenyl]-1-piperidinyl]-1,2,4-triazolo[4,3-a]pyridine] | – | – |
| 45.5 ± 2.1% | 54.5 ± 2.1 | 96.4 | 93.1 | 3.6 | 6.9 | about 90% | 58 | 1.2 | 0.5 | [11CH3]Oc1ccc(F)c(F)c1C1CCN(c2ccn3c(CC4CC4)nnc3c2Cl)CC1 [[^11C]B-10, 8-chloro-3-(cyclopropylmethyl)-7-[4-[2,3-difluoro-6-[^11C]methoxyphenyl]-1-piperidinyl]-1,2,4-triazolo[4,3-a]pyridine] | – | – |
| 70% and 69.7 ± 5.1% | 30.3 ± 5.1 | 95.5 ± 1.3 | 90.3 ± 0.3 | 4.1 ± 1.5 | 9.7 ± 0.3 | about 90% | 73 | 1.4 | 0.38 | [11CH3]Oc1c(F)ccc(F)c1C1CCN(c2ccn3c(CC4CC4)nnc3c2Cl)CC1 [[^11C]B-2, 8-chloro-3-(cyclopropylmethyl)-7-[4-(3,6-difluoro-2-[^11C]methoxyphenyl)-1-piperidinyl]-1,2,4-triazolo[4,3-a]pyridine] | binds reversible, specific and selective to mGluR2 | average SUV (total brain), baseline (mGluR2; baseline scan, 930-1650 sec p.i.): 1.26; % reduction of SUV (total brain) (mGluR2; compound B 0.1 mg/kg): 50%; average SUV (total brain) before chase (mGluR2; compound B 0.1 mg/kg, 930-1650 sec p.i.): 1.35; average SUV (total brain) after chase (mGluR2; compound B 0.1 mg/kg): 0.67; % reduction of SUV (total brain) (mGluR2; compound B 0.3 mg/kg): 64%; average SUV (total brain) before chase (mGluR2; compound B 0.3 mg/kg, 930-1650 sec p.i.): 2.15; average SUV (total brain) after chase (mGluR2; compound B 0.3 mg/kg): 0.78; % reduction of SUV (total brain) (mGluR2; compound B 1 mg/kg): 66%; average SUV (total brain) before chase (mGluR2; compound B 1 mg/kg, 930-1650 sec p.i.): 1.78; average SUV (total brain) after chase (mGluR2; compound B 1 mg/kg): 0.61; % reduction of SUV (total brain) (mGluR2; compound B 4 mg/kg): 74%; average SUV (total brain) before chase (mGluR2; compound B 4 mg/kg, 930-1650 sec p.i.): 1.36; average SUV (total brain) after chase (mGluR2; compound B 4 mg/kg): 0.36 |

| SMILES | Intact tracer in rat plasma [1] | Polar metabolites in rat plasma [1] [%] | intact tracer in perfused cerebellum [2] [%] | intact tracer in perfused cerebrum [2] [%] | polar metabolite in perfused cerebellum [2] [%] | polar metabolite in perfused cerebrum [2] [%] | recovered radioactivity present as intact tracer, on average, in both cerebrum and cerebellum [2] | % reduction of SUV (total brain) due to chase (mGluR2) [%] | SUV (total brain) before chase (mGluR2) | SUV (total brain) after chase (mGluR2) | character of tracer binding to mGluR2 in vivo (mGluR2) | other results |
| --- | --- | --- | --- | --- | --- | --- | --- | --- | --- | --- | --- | --- |
| [11CH3]Oc1ccc(F)cc1C1CCN(c2ccn3c(CC4CC4)nnc3c2Cl)CC1 [[^11C]B-4, 8-chloro-3-(cyclopropylmethyl)-7-[4-[5-fluoro-2-[^11C]methoxyphenyl]-1-piperidinyl]-1,2,4-triazolo[4,3-a]pyridine] | 41.0 ± 7.1% | 59.0 ± 7.1 | 92.7 | 92.4 | 7.3 | 7.6 | about 90% | 70 | 1.05 | 0.32 | binds reversible and specific to mGluR2 | effect of self-chase on brain radioactivity (mGluR2; B-4 3 mg/kg i.v. 30 min after tracer): significant displacement; effect of self-blocking on brain uptake (mGluR2; B-4 10 mg/kg s.c. 30 min prior to tracer): lower brain uptake and faster wash-out; time at which maximum radioactivity concentration in brain is reached (mGluR2; baseline scan): about 9 min p.i.; time until which maximum radioactivity concentration stays constant (mGluR2; baseline scan, followed by wash-out): about 27 min p.i. |
